Test results published in publication PMC7697635, “Dual RNase and β-lactamase Activity of a Single Enzyme Encoded in Archaea” (Life, 2020).

Assays:
[1] = tested on: T1, archaeal class C-like β-lactamase; experiment: nitrocefin hydrolysis, absorbance at […] nm, Michaelis-Menten fit; type: biochemical, Methanosarcina sp.; settings: room temperature; 4 µM enzyme; 0.05-1.5 mM nitrocefin
T1 construct: gene class C-like beta-lactamase

[2] = molecular target: T2, MetbaB (Methanosarcina β-lactamase class B) (Methanosarcina barkeri, UniProt A0A0E3SJT9); experiment: inhibition of nitrocefin hydrolysis, absorbance at […] nm; type: biochemical; settings: substrate nitrocefin; 1 µg/mL sulbactam; 30 min
T2 construct: gene MSBR3_0040
T2 sequence (A0A0E3SJT9 1-213 limits assumed): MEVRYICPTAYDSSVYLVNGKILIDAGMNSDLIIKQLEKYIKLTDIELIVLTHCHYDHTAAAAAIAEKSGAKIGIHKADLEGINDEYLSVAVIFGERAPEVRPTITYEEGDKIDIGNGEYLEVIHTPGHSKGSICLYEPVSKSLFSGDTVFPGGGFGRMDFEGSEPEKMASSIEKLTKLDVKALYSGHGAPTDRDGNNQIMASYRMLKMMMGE

| SMILES | Km [1] [µM] | inhibition at 1 μg/mL [2] |
| --- | --- | --- |
| O=C(Cc1cccs1)N[C@@H]1C(=O)N2C(C(=O)O)=C(/C=C/c3ccc([N+](=O)[O-])cc3[N+](=O)[O-])CS[C@H]12 [nitrocefin] | 584 | – |
| CC1(C)[C@H](C(=O)O)N2C(=O)C[C@H]2S1(=O)=O [sulbactam] | – | in the presence of sulbactam, no degradation of the nitrocefin β-lactam could be detected |
